Results on 6 compounds are retold here after patent US4140770A, “Benzoylethers and processes for their production” (A. Nattermann & Cie. GmbH, priority 1976, dated 1979).

The structures appear in SMILES notation. Values after ≈ are worked out from the molar mass of the structure shown.

The subject of one series is BaCl2-spasmus. Description: Spasmolysis in situ of a guinea pig modified according to BROCK (against BaCl2-spasmus). The series is classed as in vivo. From the text:
2.2 Spasmolysis in situ of a guinea pig modified according to BROCK (against BaCl2 -spasmus)

For the next series, the system named is coronary. In words: Increase in coronary vasodilation (Bretschneider catheter), narcotized dog, planimetric evaluation. The format is in vivo. From the text: 3.3. Increase in coronary vasodilation (Bretschneider catheter) in the case of a narcotized dog (with planimetric evaluation taking into account the duration of the effect).
The nature of a further series: Effect on blood pressure. The format is in vivo.
In series [1] the test system is intestine of the guinea pig (BaCl2-spasmus). Description: Spasmolytic effect, MAGNUS intestine of the guinea pig (against BaCl2-spasmus). Particulars: Cavia porcellus, read-out: ED50 spasmolytic effect. From the text: 2.1 MAGNUS intestine of the guinea pig (against BaCl2 -spasmus)
Series [2] is described as follows: Acute toxicity (LD50 mouse). Conditions: in vivo.
A short description of series [3]: Acute toxicity (LD50 rat). Conditions: in vivo, iv. From the text: +according to KOMLOS and PETOCZ, 20 Arzneimittel-Forschung 1338 (1970)
A further series deals with A.femoralis. In words: Increase in peripheral vasodilation (A.femoralis), narcotized dog, planimetric evaluation. The series is classed as in vivo.
The test system of another series is rat. Conditions: according to KOMLOS and PETOCZ (1970), cited from earlier work.
For a further series, the system named is mouse. Conditions: according to KOMLOS and PETOCZ (1970); cited from earlier work.

Excerpt for A.femoralis: 3.2 Increase in peripheral vasodilation (A.femoralis) in the case of the narcotized dog (with planimetric evaluation taking into account the duration of the effect).

For the compound `CCN(CC)CCOc1c(C)cc(C(=O)CC(c2ccccc2)c2ccccc2)cc1C` [BC 58, 4-[2-(N,N-diethylamino)-ethoxy]-3,5-dimethyl-β,β-diphenylpropiophenone], the “inhibition (spasmolysis in situ)” value in the series with BaCl2-spasmus (5.6 mg/kg i.v.) stood at 55%; in the series with BaCl2-spasmus (10.0 mg/kg i.v.) it was 67%; in the series with BaCl2-spasmus (17.8 mg/kg i.v.), 88%. The “Increase in coronary vasodilation” value in the series with coronary (3.16 mg/kg i.v.) is given as “approx. 350 ml × min”; in the series on coronary (5.6 mg/kg i.v.), “approx. 680 ml × min”. The “Effect on blood pressure” value in the series “Effect on blood pressure” (3.16 mg/kg i.v.) is listed as “approx. 30 mm Hg”; in “Effect on blood pressure” (5.6 mg/kg i.v.), “approx. 30 mm Hg”; in “Effect on blood pressure” (10.0 mg/kg i.v.) it was “approx. 40 mm Hg”. In addition, in series [1], the IC50 came to 0.044 µg/mL (≈ 0.102 µM). In addition, the LD50 (as a rule, the dose expected to kill half of the subjects tested) in [2] (iv, read-out: LD50 mouse i.v.) stood at 60 mg/kg; in [2] (po, read-out: LD50 mouse p.o.) it was 1900 mg/kg; in [3], 54 mg/kg. In addition, the “Increase in peripheral vasodilation (A.femoralis)” value in the series with A.femoralis (3.16 mg/kg i.v.) is reported as “approx. 400 ml × min”; in the series with A.femoralis (5.6 mg/kg i.v.) it was “approx. 800 ml × min”; in the series with A.femoralis (10.0 mg/kg i.v.), “approx. 2,200 ml × min”. Also, the “duration of the effect (peripheral vasodilation)” value in the series on A.femoralis (versus papaverine, i.v.) was “longer duration of the effect”.
Consider `CC[N+](CC)(CCOc1c(C)cc(C(=O)CC(c2ccccc2)c2ccccc2)cc1C)Cc1ccccc1` [BC 96 c], for which the LD50 in [2] (iv, read-out: LD50 mouse i.v.) was 10 to 12 mg/kg; in series [2] (po, read-out: LD50 mouse p.o.) it was approximately 2000 mg/kg.
On to `Cc1cc(C(=O)CC(c2ccccc2)c2ccccc2)cc(C)c1OCCN(C(C)C)C(C)C` [BC 79, 4-[2-(N,N-diisopropylamino)-ethoxy]-3,5-dimethyl-β,β-diphenylpropiophenone], for which, in [1], the IC50 was found to be 0.28 µg/mL (≈ 0.612 µM).
`Cc1cc(C(=O)CC(c2ccccc2)c2ccccc2)cc(C)c1OCCN(C)C` [BC 77, 4-[2-(N,N-dimethylamino)-ethoxy]-3,5-dimethyl-β,β-diphenylpropiophenone]: in series [1], the IC50 amounted to 0.79 µg/mL (≈ 1.97 µM).
With `COc1ccc(Cc2nccc3cc(OC)c(OC)cc23)cc1OC` [Papaverine, reference compound], the LD50 rat i.v. with rat (i.v.) is reported as 18 mg/kg. Also, the LD50 rat p.o. with rat (p.o.) is on record as 325 mg/kg. For the same compound, the LD50 mouse p.o. with mouse is 343 mg/kg. The “inhibition (spasmolysis in situ)” value came to 5% with BaCl2-spasmus (5.6 mg/kg i.v.), 8% in the series with BaCl2-spasmus (10.0 mg/kg i.v.) and 57% with BaCl2-spasmus (17.8 mg/kg i.v.). In addition, in the series on coronary (5.6 mg/kg i.v.), the “Increase in coronary vasodilation” value is “approx. 75 ml × min”. Further, the “Effect on blood pressure” value in “Effect on blood pressure” (3.16 mg/kg i.v.) is given as “approx. 25 mm Hg”; in “Effect on blood pressure” (5.6 mg/kg i.v.), “approx. 35 mm Hg”; in the series “Effect on blood pressure” (10.0 mg/kg i.v.), “approx. 40 mm Hg”. Besides, the IC50 in series [1] was 0.79 µg/mL (≈ 2.33 µM). For the same compound, in series [2] (iv, read-out: LD50 mouse i.v.), the LD50 was 44 mg/kg. The “Increase in peripheral vasodilation (A.femoralis)” value was “approx. 100 ml × min” in the series with A.femoralis (3.16 mg/kg i.v.), “approx. 250 ml × min” with A.femoralis (5.6 mg/kg i.v.) and “approx. 180 ml × min” in the series with A.femoralis (10.0 mg/kg i.v.).
`CC[N+](C)(CC)CCOc1c(C)cc(C(=O)CC(c2ccccc2)c2ccccc2)cc1C` [BC 96 a]: the median lethal dose (LD50) in series [2] (iv, read-out: LD50 mouse i.v.) turned out to be 7.93 mg/kg; in [2] (po, read-out: LD50 mouse p.o.), 1280 mg/kg.
